Structures are written as SMILES. pIC50, pKd: −log10 of the molar value. Calls of active or inactive are those of the source. The calls are words filed in the database; no cut-off is given here.

Series [1] has as its target T1, Androgen receptor (Homo sapiens, UniProt P10275).
T1 sequence (P10275 whole entry): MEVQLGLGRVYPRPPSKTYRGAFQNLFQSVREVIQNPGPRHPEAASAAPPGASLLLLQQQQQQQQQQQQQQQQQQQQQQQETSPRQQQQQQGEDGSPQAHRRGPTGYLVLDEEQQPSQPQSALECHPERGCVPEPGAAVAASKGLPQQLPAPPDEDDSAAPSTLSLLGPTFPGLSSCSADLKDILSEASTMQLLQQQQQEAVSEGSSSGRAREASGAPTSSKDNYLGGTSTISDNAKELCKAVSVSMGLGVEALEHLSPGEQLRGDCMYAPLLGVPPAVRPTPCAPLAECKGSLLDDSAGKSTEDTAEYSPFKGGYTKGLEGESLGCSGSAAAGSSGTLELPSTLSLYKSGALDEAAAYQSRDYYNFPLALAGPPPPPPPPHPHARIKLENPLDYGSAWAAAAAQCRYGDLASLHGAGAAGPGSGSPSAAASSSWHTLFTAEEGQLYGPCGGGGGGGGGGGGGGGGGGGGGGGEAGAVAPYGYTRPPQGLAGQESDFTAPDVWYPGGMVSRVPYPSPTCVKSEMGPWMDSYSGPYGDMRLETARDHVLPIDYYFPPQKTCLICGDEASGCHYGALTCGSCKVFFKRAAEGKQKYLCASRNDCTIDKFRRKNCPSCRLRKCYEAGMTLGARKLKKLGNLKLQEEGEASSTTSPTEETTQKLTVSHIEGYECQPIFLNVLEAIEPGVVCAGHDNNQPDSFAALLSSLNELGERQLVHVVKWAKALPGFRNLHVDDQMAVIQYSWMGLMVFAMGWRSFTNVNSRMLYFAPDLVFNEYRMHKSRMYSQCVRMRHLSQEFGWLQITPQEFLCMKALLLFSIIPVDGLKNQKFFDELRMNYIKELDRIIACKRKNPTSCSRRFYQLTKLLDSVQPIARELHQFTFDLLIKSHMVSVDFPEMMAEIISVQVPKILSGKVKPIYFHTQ
Briefly: Antagonist activity at androgen receptor (unknown origin) in human LNCap-ARR2PB-eGFP cells by measuring fluorescence intensity measured after 3 days by transcriptional assay. The format is cell-based.

Another series deals with LNCaP. In words: Cytotoxicity against human LNCAP cells assessed as inhibition of cell proliferation by MTT assay. The format is functional, cell-based.
Series [2] is described as follows: Cytotoxicity against human Chang liver cells assessed as inhibition of cell proliferation by MTT assay. Format: toxicity, cell-based.
A short description of series [3]: Cytotoxicity against human GES1 cells assessed as inhibition of cell proliferation by MTT assay. Format: toxicity, cell-based.
The nature of series [4]: Inhibition of PSA secretion in human LNCaP ARR2PB-eGFP cells measured after 3 days by immuno assay. Conditions: 72 h. The format is functional, cell-based.
The nature of series [5]: Antagonist activity at mineralocorticoid receptor (unknown origin) transfected in PC-3 cells assessed as inhibition of […]-stimulated transcriptional activity after 3 days by dual luciferase reporter assay. The format is cell-based. Conditions: Homo sapiens, PC-3, 72 h.
The target in series [6] is T1, Androgen receptor.
The target in series [7] is T2, Androgen receptor (Homo sapiens, UniProt P10275, F877L). Briefly: Antagonist activity at androgen receptor F877L mutant (unknown origin) expressed in PC-3 cells assessed as inhibition of transcriptional activity measured after 24 hrs by dual luciferase assay. The format is cell-based.
Series [8] deals with T3, Androgen receptor (Homo sapiens, UniProt P10275, F877L/T878A). In words: Antagonist activity at androgen receptor F877L/T877A dual mutant (unknown origin) expressed in PC-3 cells assessed as inhibition of transcriptional activity measured after 24 hrs by dual luciferase assay. The format is cell-based.
The target in series [9] is T2, Androgen receptor. In words: Antagonist activity at androgen receptor F877L mutant in human PC-3 cells assessed as inhibition of transcriptional activity measured after 24 hrs by luminescence based microplate reader assay. The format is cell-based.
The target in series [10] is T3, Androgen receptor. In words: Antagonist activity at androgen receptor F876L/T877A mutant in human PC-3 cells assessed as inhibition of transcriptional activity measured after 24 hrs by luminescence based microplate reader assay. The format is cell-based.
Series [11] can be described thus: Antagonist activity at androgen receptor T878G mutant (unknown origin) expressed in PC-3 cells assessed as inhibition of transcriptional activity measured after 24 hrs by dual luciferase assay. Format: cell-based. To be noted: Homo sapiens, PC-3, 24 h.
Series [12] addresses T4, Androgen receptor (Homo sapiens) (UniProt P10275).
T4 sequence (whole entry): T1 sequence (P10275 whole entry)
Briefly: Antagonist activity at human AR AF2 assessed as inhibition of fluorescent-labelled D11-FxxLF peptide Co-activator to receptor by TR-FRET assay. To be noted: filed as antagonist.

T2 sequence (P10275 whole entry F877L): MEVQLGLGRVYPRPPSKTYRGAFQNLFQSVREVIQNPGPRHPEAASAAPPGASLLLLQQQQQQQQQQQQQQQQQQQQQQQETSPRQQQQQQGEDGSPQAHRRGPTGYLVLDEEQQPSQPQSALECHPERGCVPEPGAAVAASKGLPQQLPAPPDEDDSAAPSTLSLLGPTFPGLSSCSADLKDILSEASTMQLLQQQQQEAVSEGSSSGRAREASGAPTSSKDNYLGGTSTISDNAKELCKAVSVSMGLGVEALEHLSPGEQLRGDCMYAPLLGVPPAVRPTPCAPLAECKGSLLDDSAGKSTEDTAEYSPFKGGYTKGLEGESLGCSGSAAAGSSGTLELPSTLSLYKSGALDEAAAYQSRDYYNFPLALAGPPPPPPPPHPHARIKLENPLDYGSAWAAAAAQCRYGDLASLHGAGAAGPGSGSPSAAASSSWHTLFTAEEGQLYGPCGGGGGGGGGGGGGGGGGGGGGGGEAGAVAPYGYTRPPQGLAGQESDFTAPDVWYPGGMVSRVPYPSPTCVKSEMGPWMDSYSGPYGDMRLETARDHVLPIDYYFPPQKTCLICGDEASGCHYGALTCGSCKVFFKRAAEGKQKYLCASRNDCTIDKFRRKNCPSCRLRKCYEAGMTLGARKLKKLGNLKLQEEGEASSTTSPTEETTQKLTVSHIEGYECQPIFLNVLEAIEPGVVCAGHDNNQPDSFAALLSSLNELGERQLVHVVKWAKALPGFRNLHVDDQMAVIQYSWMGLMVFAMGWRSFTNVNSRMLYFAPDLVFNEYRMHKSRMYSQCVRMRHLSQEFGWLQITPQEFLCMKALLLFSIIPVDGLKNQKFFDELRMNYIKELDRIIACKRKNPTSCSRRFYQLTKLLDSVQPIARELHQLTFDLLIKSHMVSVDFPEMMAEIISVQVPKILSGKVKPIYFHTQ
T3 sequence (P10275 whole entry F877L/T878A): as the sequence (P10275 whole entry F877L) above, with T878A counted along it

Regarding `Cc1cn(-c2ccc(C#N)c(C(F)(F)F)c2)nc1CNC(=O)c1ccc([N+](=O)[O-])cc1`, the pIC50 against Androgen receptor [1] is 6.35.
Turning to `N#Cc1ccc(-n2ccc(CNC(=O)c3ccc(C(F)(F)F)cc3)n2)cc1C(F)(F)F`, on Androgen receptor [1], the pIC50 was < 4.60.
Still for that read-out and setting: the value for `N#Cc1ccc(-n2ccc(CNS(=O)(=O)c3ccc(F)cc3)n2)cc1C(F)(F)F` was < 4.60.
On the same count and under the same terms, the value for `N#Cc1ccc(-n2ccc(CNC(=O)Nc3ccc(F)cc3)n2)cc1C(F)(F)F` was < 4.60; that for `Cc1cn(-c2ccc(C#N)c(C(F)(F)F)c2)nc1CNC(=O)c1ccc(F)cc1` was 6.66.
Still for that read-out and setting: with `CNC(=O)c1ccc(C(=O)NCc2ccn(-c3ccc(C#N)c(C(F)(F)F)c3)n2)cc1F` the figure was < 4.60.
On to `CNC(=O)c1ccc(N2C(=S)N(c3ccc(C#N)c(C(F)(F)F)c3)C(=O)C2(C)C)cc1F` [ENZALUTAMIDE], for which the pIC50 is 4.58 with LNCaP; 4.19 in [2]; 4.01 in series [3]; 6.32 in series [4]; 6.89 in series [5].
The compound `N#Cc1ccc(-n2ccc(CC(=O)Nc3ccc(F)cn3)n2)cc1C(F)(F)F` gave a pIC50 against Androgen receptor [1] of 6.47.
Turning to `N#Cc1ccc(C(=O)NCc2ccn(-c3ccc(C#N)c(C(F)(F)F)c3)n2)cc1`, the pIC50 against Androgen receptor [1] is 6.52.
Consider `N#Cc1ccc(-n2ccc(CNC(=O)c3ccc(F)cn3)n2)cc1C(F)(F)F`, for which the pIC50 at Androgen receptor [1] was 5.24.
The same measure, in the same setting: the value for `N#Cc1ccc(NC(=O)Cc2ccn(-c3ccc(C#N)c(C(F)(F)F)c3)n2)cc1` was 7.30.
Same read-out and setting: the value for `O=C(Cc1ccn(-c2ccc([N+](=O)[O-])c(C(F)(F)F)c2)n1)Nc1ccc(F)nc1` was 6.44.
On the same count and under the same terms, with `O=C(Cc1ccn(-c2ccc([N+](=O)[O-])c(C(F)(F)F)c2)n1)Nc1ccc(F)cn1` the figure was 5.59; with `CC(O)c1cc(C(=O)NCc2ccn(-c3ccc(C#N)c(C(F)(F)F)c3)n2)n[nH]1` (stereo not given), < 4.60; with `N#Cc1ccc(-n2ccc(CNC(=O)c3ccc(F)cc3)n2)cc1C(F)(F)F`, 6.12.
In the case of `N#Cc1ccc(-n2ccc(CC(=O)Nc3ccc(F)cn3)n2)cc1Cl`, the pIC50 against Androgen receptor [1] was 6.77.
Same read-out and setting: with `N#Cc1ccc(-n2ccc(CC(=O)Nc3ccc([N+](=O)[O-])cc3)n2)cc1C(F)(F)F` the figure was 7.10; with `Cc1cn(-c2ccc(C#N)c(C(F)(F)F)c2)nc1CNC(=O)c1ccc(C#N)cc1`, 4.83.
With `N#Cc1ccc(-n2ccc(C(=O)Nc3ccc(F)cn3)n2)cc1C(F)(F)F`, the pIC50 at Androgen receptor [1] is < 4.60.
On the same count and under the same terms, the value for `N#Cc1ccc(NC(=O)c2ccn(-c3ccc(C#N)c(C(F)(F)F)c3)n2)cc1` was < 4.60.
Still for that read-out and setting: the value for `N#Cc1ccc(-n2ccc(CCCNC(=O)c3ccc(F)cc3)n2)cc1C(F)(F)F` was < 4.60.
Still for that read-out and setting: the value for `N#Cc1ccc(-n2ccc(C(=O)Nc3ccc(F)nc3)n2)cc1C(F)(F)F` was < 4.60; that for `N#Cc1ccc(-n2ccc(CNC(=O)c3ccc(F)nc3)n2)cc1C(F)(F)F` was 6.11; that for `N#Cc1ccc(-n2ccc(NC(=O)c3ccc(F)cc3)n2)cc1C(F)(F)F` was < 4.60.
In the case of `N#Cc1ccc(-n2cc(C(F)(F)F)c(CNC(=O)c3ccc(F)cc3)n2)cc1C(F)(F)F`, the pIC50 at Androgen receptor [1] is 4.79.
On the same count and under the same terms, the value for `N#Cc1ccc(C(=O)NCCc2ccn(-c3ccc(C#N)c(C(F)(F)F)c3)n2)cc1` was < 4.60; that for `O=C(Cc1ccn(-c2ccc([N+](=O)[O-])c(C(F)(F)F)c2)n1)Nc1ccc(F)cc1` was 6.47.
Take `N#Cc1ccc(-n2ccc(CC(=O)Nc3ccc(F)cc3)n2)cc1C(F)(F)F`: the pIC50 at Androgen receptor [1] is 6.92; in the series on LNCaP it was 5.23; in [2], < 3.00; in [3] it was < 3.00; in [4] it was 5.41; in series [5], 5.35. The pIC50 at Androgen receptor [7] was 6.04; on Androgen receptor [8], 6.60; at Androgen receptor [9] it was 6.04; on Androgen receptor [10], 6.60; in series [11], 7.10. The compound further had a pKd at Androgen receptor [6] of 5.00. Further, the outcome in series [12] was Active.
On to `N#Cc1ccc(-n2ccc(CNC(=O)c3ccc(Cl)cc3)n2)cc1C(F)(F)F`, for which, at Androgen receptor [1], the pIC50 was 5.94.
For the compound `N#Cc1ccc(-n2ccc(CC(=O)Nc3ccc(F)c(F)c3)n2)cc1C(F)(F)F`, at Androgen receptor [1], the negative-log IC50 (pIC50) was 6.68.
The same measure, in the same setting: the value for `CC(C)(O)c1ccc(C(=O)NCc2ccn(-c3ccc(C#N)c(C(F)(F)F)c3)n2)cc1` was < 4.60; that for `Cc1ccc(NC(=O)Cc2ccn(-c3ccc(C#N)c(C(F)(F)F)c3)n2)cc1` was 5.34.
Same read-out and setting: the value for `N#Cc1ccc(-n2ccc(CC(=O)Nc3ccncc3)n2)cc1C(F)(F)F` was < 4.60.
Regarding `CC(O)c1cc(C(=O)N[C@H](C)Cn2ccc(-c3ccc(C#N)c(Cl)c3)n2)n[nH]1` (stereo not given in full), the pIC50 in series [11] is 6.16.
The compound `N#Cc1ccc(-n2ccc(CNC(=O)c3ccc([N+](=O)[O-])cc3)n2)cc1C(F)(F)F` showed a pIC50 on Androgen receptor [1] of 5.73.
Same read-out and setting: with `COc1ccc(NC(=O)Cc2ccn(-c3ccc(C#N)c(C(F)(F)F)c3)n2)cc1` the figure was 5.04.
Same read-out and setting: with `N#Cc1ccc(-n2ccc(NC(=O)Nc3ccc(F)cc3)n2)cc1C(F)(F)F` the figure was < 4.60; with `N#Cc1ccc(-n2ccc(C(=O)Nc3ccncc3)n2)cc1C(F)(F)F`, < 4.60; with `N#Cc1ccc(-n2ccc(CC(=O)Nc3ccc(F)cc3)n2)cc1Cl`, 6.66.
Still for that read-out and setting: the value for `N#Cc1ccc(-n2cc(-c3ccccc3)c(CNC(=O)c3ccc(F)cc3)n2)cc1C(F)(F)F` was < 4.60.
For `N#Cc1ccc(-n2ccc(CCNC(=O)c3ccc([N+](=O)[O-])cc3)n2)cc1C(F)(F)F`, the pIC50 at Androgen receptor [1] was < 4.60.
Still for that read-out and setting: the value for `N#Cc1ccc(-n2ccc(CCCNC(=O)c3ccc([N+](=O)[O-])cc3)n2)cc1C(F)(F)F` was < 4.60.
The same measure, in the same setting: with `N#Cc1ccc(C(=O)NCCCc2ccn(-c3ccc(C#N)c(C(F)(F)F)c3)n2)cc1` the figure was < 4.60.
The same measure, in the same setting: with `N#Cc1ccc(-n2ccc(C(=O)Nc3ccc(F)cc3)n2)cc1C(F)(F)F` the figure was < 4.60; with `N#Cc1ccc(-n2ccc(CCNC(=O)c3ccc(F)cc3)n2)cc1C(F)(F)F`, < 4.60.
Regarding `N#Cc1ccc(-n2ccc(CC(=O)Nc3ccc(F)nc3)n2)cc1C(F)(F)F`, the pIC50 against Androgen receptor [1] is 6.85; in the series on LNCaP it was 5.05; in series [2], < 3.00; in [3], < 3.00; in series [4], 5.76; in series [5] it was 4.79. Besides, the pIC50 on Androgen receptor [7] was 5.88; on Androgen receptor [8] it was 5.95; on Androgen receptor [9], 5.88; on Androgen receptor [10] it was 5.95; in series [11], 6.51. On Androgen receptor [6], this compound gave a pKd of 5.05. Besides, the outcome in series [12] was Active.
Turning to `N#Cc1cc(NC(=O)Cc2ccn(-c3ccc(C#N)c(C(F)(F)F)c3)n2)ccc1F`, on Androgen receptor [1], the pIC50 is 5.20.
